“Also recorded” adds a separate entry of the source.
Key:
[1] = biological target: T1, KCNQ1 (Homo sapiens, UniProt P51787); experiment: Whole-cell voltage clamp of CHO cells expressing KCNQ1; type: cell-based; settings: 10 μM ZnPy, extracellular
T1 construct: expressed in transfected cells; host or cells: CHO cells
Method: (§1) Cell culture and transient transfection—Chinese Hamster Ovary (CHO) cells were grown in 50/50 DMEM/F12 (Cellgro) with 10% FBS (Gibco), 100 U/ml penicillin (Cellgro), 100 μg/ml streptomycin (Cellgro) and 2 mM L-glutamine (Gibco). At 24 hours before transfection, cells were split and plated in 60 mm dishes and were transfected with Lipofectamine2000™ reagent (Invitrogen) according to the manufacturer's instruction. At 24 hours after transfection, cells were split and re-plated onto coverslips coated with poly-L-lysine (Sigma). Plasmid expressing CD4 cDNA as a marker was cotransfected with the channel cDNAs of hKCNQ1 (from Dr. Michael Sanguinetti), hKCNQ4 (from Dr. Vitya Vardanyan), rKCNQ2, rKCNQ3, and hKCNQ5 (from Drs. David McKinnon, Mark Shapiro, and Thomas Jentsch). Prior to recording, anti-CD4 Dynabeads (Dynal. Biotech. Inc.) were added into the medium to allow for identification of the transfected cells. Stable lines expressing Kv2.1, hERG, and Kv4.2 were generated by standard protocols using pcDNA3.1 and maintained at complete medium supplemented with 500 μg/ml G418. […]
(§2) Electrophysiological Recording—Standard whole-cell recording was used. […] Current and voltage were recorded using an Axopatch-200A amplifier, filtered at 1 kHz and digitized using a DigiData 1322A with pClamp 9.2 software (Axon Instruments, Foster City, Calif.). […]

[2] = biological target: T2, KCNQ2 (W236L) (Rattus norvegicus, UniProt O88943, W236L); experiment: Whole-cell recording of KCNQ2 (W236L) mutant; type: cell-based; settings: 2.5 μM ZnPy, −30 mV or +50 mV
T2 construct: expressed in transfected cells
Method: FIG. 8. Differential modulatory sites on KCNQ channel by ZnPy and retigabine. A. Left Panel. Representative KCNQ2 current was recorded with intracellular pipet solution supplemented with 10 μM ZnPy. The overlapping external application of ZnPy is as shown. Right Panel. G-V curves at different indicated recording times (0 to 12 minutes) upon establishing stable seal are shown. The intracellular perfusion (with or without EGTA) was first calibrated by using compatible molecular weight dye. […] The levels of current potentiation at +50 mV and −30 mV were calculated by Idrug/Icontrol, and shown as indicated (n≧4, *p<0.001).
(§3) Mutagenesis—Starting from KCNQ cDNAs, the KCNQ2 point mutants were constructed by recombinant PCR and verified by sequencing.
Electrophysiological Recording—Standard whole-cell recording was used. Pipettes were pulled from borosilicate glass capillaries (TW150-4, World Precision Instruments, Sarasota, Fla.). When filled with the intracellular solution, the pipettes have resistances of […]. During the recording, constant perfusion of extracellular solution was maintained using a BPS perfusion system (ALA, Westbury, N.Y.). […] Current and voltage were recorded using an Axopatch-200A amplifier, filtered at 1 kHz and digitized using a DigiData 1322A with pClamp 9.2 software (Axon Instruments, Foster City, Calif.). […]

[3] = biological target: T3, KCNQ4 (Homo sapiens, UniProt P56696); experiment: Whole-cell voltage clamp of CHO cells expressing KCNQ4; type: cell-based; settings: 10 μM ZnPy, extracellular
T3 construct: expressed in transfected cells; host or cells: CHO cells
Method: as §1, §2

[4] = biological target: T4, Kv4.2 A-type potassium channel (Homo sapiens, UniProt Q9NZV8); experiment: Channel activity in Kv4.2 stable line; type: cell-based
T4 construct: expressed in transfected cells
Method: as §1, §2

[5] = biological target: T5, human ether-a-go-go related gene (hERG) (Homo sapiens, UniProt Q12809); type: cell-based
T5 construct: expressed in transfected cells
Method: as §1, §2

[6] = Mouse model of severe focal ischemia; settings: in vivo
[7] = test system: lymphocytic leukemia cells; settings: micromolar concentrations; cited from earlier work
[8] = biological target: T6, KCNQ2 L249A (Rattus norvegicus, UniProt O88943, L249A); experiment: Whole-cell recording of KCNQ2 L249A mutant; type: cell-based
T6 construct: expressed in transfected cells
Source text: FIG. 9. KCNQ2 point mutants selectively lose ZnPy sensitivity. […] Each mutation site was indicated based on the predicted transmembrane regions. Dashed line indicates the potentiation level of wt KCNQ2 channel in the absence of ZnPy. […] C. Modeling of the S5-pore-S6 region of KCNQ2.
as §3
Electrophysiological Recording—Standard whole-cell recording was used. Pipettes were pulled from borosilicate glass capillaries (TW150-4, World Precision Instruments, Sarasota, Fla.). When filled with the intracellular solution, the pipettes have resistances of […]. During the recording, constant perfusion of extracellular solution was maintained using a BPS perfusion system (ALA, Westbury, N.Y.). Pipette solution contained (mM): KCl 145, MgCl2 1, EGTA 5, HEPES 10, MgATP 5 (pH 7.3); extracellular solution contained (mM): NaCl 140, KCl 3, CaCl2 2, MgCl2 1.5, HEPES 10, glucose 10 (pH 7.4). Current and voltage were recorded using an Axopatch-200A amplifier, filtered at 1 kHz and digitized using a DigiData 1322A with pClamp 9.2 software (Axon Instruments, Foster City, Calif.). Series resistance compensation was also used and set to 60-80%.

[9] = biological target: T7, Kv2.1 delay rectifier voltage-gated potassium channel (Homo sapiens, UniProt Q14721); experiment: Channel activity in Kv2.1 stable line; type: cell-based
T7 construct: expressed in transfected cells
Method: as §1, §2

[10] = biological target: T8, N-type calcium channel (Homo sapiens, UniProt Q00975); experiment: Channel activity in N-type calcium channel stable line; type: cell-based
T8 construct: expressed in transfected cells; Diane Lipscombe and David Yue
Method: as §1, §2

T7 sequence (Q14721 whole entry): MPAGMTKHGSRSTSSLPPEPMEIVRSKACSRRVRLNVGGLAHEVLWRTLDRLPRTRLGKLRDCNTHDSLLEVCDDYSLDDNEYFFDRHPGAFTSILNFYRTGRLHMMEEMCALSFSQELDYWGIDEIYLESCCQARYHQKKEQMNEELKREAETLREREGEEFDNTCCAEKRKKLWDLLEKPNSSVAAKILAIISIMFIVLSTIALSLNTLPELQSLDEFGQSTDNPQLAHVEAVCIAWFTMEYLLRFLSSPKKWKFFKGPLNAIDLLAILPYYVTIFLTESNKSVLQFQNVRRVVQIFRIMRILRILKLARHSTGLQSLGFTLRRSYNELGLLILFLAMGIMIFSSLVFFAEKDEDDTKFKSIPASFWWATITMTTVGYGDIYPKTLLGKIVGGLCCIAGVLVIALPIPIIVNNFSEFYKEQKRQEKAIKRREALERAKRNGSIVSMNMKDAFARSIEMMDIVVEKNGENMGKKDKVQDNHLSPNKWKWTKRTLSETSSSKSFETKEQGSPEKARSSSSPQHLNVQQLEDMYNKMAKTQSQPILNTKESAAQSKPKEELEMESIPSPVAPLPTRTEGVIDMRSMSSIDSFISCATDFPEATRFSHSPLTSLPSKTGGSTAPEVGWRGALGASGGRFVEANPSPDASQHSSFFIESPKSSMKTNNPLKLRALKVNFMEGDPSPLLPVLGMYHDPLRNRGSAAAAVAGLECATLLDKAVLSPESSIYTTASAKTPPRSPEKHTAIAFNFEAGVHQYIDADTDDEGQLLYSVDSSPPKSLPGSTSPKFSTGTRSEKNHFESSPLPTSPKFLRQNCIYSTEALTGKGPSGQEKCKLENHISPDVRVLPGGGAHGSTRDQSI
T5 sequence (Q12809 whole entry): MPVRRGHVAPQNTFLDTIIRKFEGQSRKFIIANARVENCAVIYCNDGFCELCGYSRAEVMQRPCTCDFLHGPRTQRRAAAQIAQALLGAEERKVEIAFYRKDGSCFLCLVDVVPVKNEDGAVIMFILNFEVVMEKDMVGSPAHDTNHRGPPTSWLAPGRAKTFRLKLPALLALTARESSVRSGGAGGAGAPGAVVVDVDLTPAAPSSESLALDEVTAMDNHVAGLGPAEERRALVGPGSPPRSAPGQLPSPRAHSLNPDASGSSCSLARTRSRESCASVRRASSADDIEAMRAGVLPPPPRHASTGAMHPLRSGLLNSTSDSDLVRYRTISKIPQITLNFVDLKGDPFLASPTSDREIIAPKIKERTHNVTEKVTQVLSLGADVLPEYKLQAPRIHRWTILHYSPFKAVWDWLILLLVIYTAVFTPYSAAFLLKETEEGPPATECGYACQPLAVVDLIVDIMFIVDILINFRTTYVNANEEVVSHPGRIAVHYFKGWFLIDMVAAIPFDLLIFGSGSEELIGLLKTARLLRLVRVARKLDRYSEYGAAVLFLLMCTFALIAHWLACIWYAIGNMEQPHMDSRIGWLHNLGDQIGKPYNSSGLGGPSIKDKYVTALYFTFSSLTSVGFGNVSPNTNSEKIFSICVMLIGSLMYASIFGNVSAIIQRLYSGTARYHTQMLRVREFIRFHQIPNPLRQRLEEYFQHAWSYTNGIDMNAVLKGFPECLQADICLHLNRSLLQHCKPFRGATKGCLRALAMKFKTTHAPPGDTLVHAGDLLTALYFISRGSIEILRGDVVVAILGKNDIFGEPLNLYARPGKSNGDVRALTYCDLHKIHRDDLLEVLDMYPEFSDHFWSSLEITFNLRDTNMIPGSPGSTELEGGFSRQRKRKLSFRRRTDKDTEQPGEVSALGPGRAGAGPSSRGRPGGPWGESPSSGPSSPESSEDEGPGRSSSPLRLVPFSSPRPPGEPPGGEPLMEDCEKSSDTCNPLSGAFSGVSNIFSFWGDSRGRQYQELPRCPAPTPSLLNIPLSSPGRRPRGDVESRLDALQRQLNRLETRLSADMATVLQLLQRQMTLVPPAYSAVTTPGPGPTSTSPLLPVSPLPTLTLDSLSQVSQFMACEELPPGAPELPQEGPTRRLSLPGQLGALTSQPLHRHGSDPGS
T4 sequence (Q9NZV8 whole entry): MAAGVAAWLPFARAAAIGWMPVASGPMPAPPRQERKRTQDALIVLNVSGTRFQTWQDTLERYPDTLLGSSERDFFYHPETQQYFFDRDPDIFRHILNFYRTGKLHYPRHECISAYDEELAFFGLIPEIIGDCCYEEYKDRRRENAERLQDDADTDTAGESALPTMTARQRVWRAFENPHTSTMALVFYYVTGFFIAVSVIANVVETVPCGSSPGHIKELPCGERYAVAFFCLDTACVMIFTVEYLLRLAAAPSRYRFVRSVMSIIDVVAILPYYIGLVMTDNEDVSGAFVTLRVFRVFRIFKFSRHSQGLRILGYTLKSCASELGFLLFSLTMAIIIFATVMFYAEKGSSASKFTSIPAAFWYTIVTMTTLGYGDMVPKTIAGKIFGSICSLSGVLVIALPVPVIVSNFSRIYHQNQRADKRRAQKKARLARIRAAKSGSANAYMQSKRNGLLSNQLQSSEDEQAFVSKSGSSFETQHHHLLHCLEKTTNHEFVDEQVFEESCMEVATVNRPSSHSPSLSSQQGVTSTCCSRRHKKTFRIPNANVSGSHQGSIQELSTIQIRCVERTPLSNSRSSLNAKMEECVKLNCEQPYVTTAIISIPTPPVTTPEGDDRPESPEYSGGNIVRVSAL

For `S=c1ccccn1[O][Zn][O]n1ccccc1=S` [ZnPy, Zinc Pyrithione], the “effect on channel activity” value [1] was “potentiated; also recorded: potentiates KCNQ1”, the “sensitivity of mutant to compound” value [2] was “comparable sensitivity to KCNQ2 wild type; also recorded: fully effective in potentiating” and the “effect on channel activity” value [3] was “potentiated”. For the same compound, the “potentiation of channel activity” value [4] was “did not potentiate”, the “potentiation of channel activity” value [5] was “did not potentiate” and the neuroprotection [6] was “significantly decreasing brain infarct volume and neurological deficit”. For the same compound, the “anti-apoptotic effect in vitro” value [7] was “protected lymphocytic leukemia cells against colchicine-induced apoptosis”, the “change in V1/2 caused by ZnPy” value [8] was “significant reduction on changes in V1/2” and the “potentiation of channel activity” value [9] was “did not potentiate”. The “potentiation of channel activity” value [10] was “did not potentiate”.

— patent US20110257146A1, “Method of Treating Kcnq Related Disorders Using Organozinc Compounds” (The johns Hopkins University, priority 2006, published 2011)
